# Patent publication US20240293413A1, “COMPOUND AND METHOD FOR TREATING CHEMOTHERAPY-RELATED GASTROINTESTINAL SIDE EFFECTS” (ONQUALITY PHARMACEUTICALS CHINA LTD., priority 2021, published 2024)
# Legend:
# Type in all cases: in vivo
# [1] = tested on: diarrhea caused by a chemotherapeutic agent in Balb/c mice; experiment: Examples 230-271 (Table 4): oral CDK inhibitor, relief of diarrhea caused by a chemotherapeutic agent
# Procedure, shortened: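 Balb/c mice, 10 per group (vehicle, chemotherapeutic agent, CDK inhibitor plus chemotherapeutic); CDK inhibitor dosed intragastrically before the chemotherapeutic agent by injection or gavage. Diarrhea graded daily.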
# [2] = tested on: diarrhea caused by a chemotherapeutic agent in Balb/c mice; experiment: Examples 343-381 (Table 6): oral versus intravenous CDK inhibitor, relief of diarrhea caused by a chemotherapeutic agent;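 on Relative remission rate: percent of treated mice whose diarrhea grade fell below chemotherapy-group average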
# Procedure, shortened: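 Balb/c mice (10 per group) received the CDK inhibitor orally or by tail-vein injection, or vehicle, followed by a chemotherapeutic agent or its solvent. Diarrhea grade was scored daily.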
# [3] = tested on: Chemotherapeutic agent-caused diarrhea models of Balb/c mice; experiment: Examples 1-229 (Table 3): oral CDK inhibitor, relief of diarrhea caused by a chemotherapeutic agent;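 further: percent of treated mice whose diarrhea grade fell below chemotherapy-group average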
structure (smiles),measurement,setting,value
"CN1CCN(c2ccc(Nc3ncc4cc5n(c4n3)C3(CCCCC3)CNC5=O)nc2)CC1 [Trilaciclib (G1T28), Trilaciclib]",Relative remission rate,"[1]; Example 236, Doxorubicin (Dox) intravenous injection 12 mg/kg single, CDK inhibitor oral 180 mg/kg single, 1 h before, cycle 10 days",40%
same,Relative remission rate,"[1]; Example 237, Doxorubicin (Dox) intravenous injection 12 mg/kg single, CDK inhibitor oral 180 mg/kg single, 12 h before, cycle 10 days",60%
same,Relative remission rate,"[1]; Example 238, Doxorubicin (Dox) intravenous injection 12 mg/kg single, CDK inhibitor oral 180 mg/kg single, 24 h before, cycle 10 days",60%
same,Relative remission rate,"[1]; Example 239, Doxorubicin (Dox) intravenous injection 12 mg/kg single, CDK inhibitor oral 180 mg/kg single, 48 h before, cycle 10 days",0%
same,Relative remission rate,"[1]; Example 254, Cytarabine (Ara-C) intraperitoneal injection 600 mg/kg single, CDK inhibitor oral 100 mg/kg single, 0.5 h before, cycle 8 days",60%
same,Relative remission rate,"[1]; Example 255, Cytarabine (Ara-C) intraperitoneal injection 600 mg/kg single, CDK inhibitor oral 100 mg/kg single, 4 h before, cycle 8 days",80%
same,Relative remission rate,"[1]; Example 256, Cytarabine (Ara-C) intraperitoneal injection 600 mg/kg single, CDK inhibitor oral 100 mg/kg single, 8 h before, cycle 8 days",80%
same,Relative remission rate,"[1]; Example 257, Cytarabine (Ara-C) intraperitoneal injection 600 mg/kg single, CDK inhibitor oral 100 mg/kg single, 12 h before, cycle 8 days",60%
same,Relative remission rate,"[1]; Example 258, Cytarabine (Ara-C) intraperitoneal injection 600 mg/kg single, CDK inhibitor oral 100 mg/kg single, 24 h before, cycle 8 days",40%
same,Relative remission rate,"[1]; Example 259, Cytarabine (Ara-C) intraperitoneal injection 600 mg/kg single, CDK inhibitor oral 100 mg/kg single, 48 h before, cycle 8 days",0%
same,Relative remission rate,"[1]; Example 270, Vinorelbine (NVB) intramuscular injection 10 mg/kg single, CDK inhibitor oral 50 mg/kg single, 1 h before, cycle 7 days",50%
same,Relative remission rate,"[2]; Example 348, Etoposide intraperitoneal injection 75 mg/kg single, CDK inhibitor intravenous injection 100 mg/kg single, 24 h before, cycle 8 days",10%
same,Relative remission rate,"[2]; Example 348, Etoposide intraperitoneal injection 75 mg/kg single, CDK inhibitor oral 100 mg/kg, 24 h before, cycle 8 days",60%
same,Relative remission rate,"[2]; Example 365, Carboplatin (CBP) intravenous injection 120 mg/kg single, CDK inhibitor intravenous injection 100 mg/kg single, 24 h before, cycle 10 days",10%
same,Relative remission rate,"[2]; Example 365, Carboplatin (CBP) intravenous injection 120 mg/kg single, CDK inhibitor oral 100 mg/kg single, 24 h before, cycle 10 days",30%
same,Relative remission rate,"[2]; Example 367, Topotecan (TP) intraperitoneal injection 10 mg/kg single, CDK inhibitor intravenous injection 200 mg/kg single, 24 h before, cycle 10 days",10%
same,Relative remission rate,"[2]; Example 367, Topotecan (TP) intraperitoneal injection 10 mg/kg single, CDK inhibitor oral 100 mg/kg single, 24 h before, cycle 10 days",30%
same,Relative remission rate,"[2]; Example 377, Gemcitabine (GEM) intramuscular injection 120 mg/kg single, CDK inhibitor intravenous injection 50 mg/kg single, 1 h before, cycle 8 days",10%
same,Relative remission rate,"[2]; Example 377, Gemcitabine (GEM) intramuscular injection 120 mg/kg single, CDK inhibitor oral 50 mg/kg single, 1 h before, cycle 8 days",60%
same,Relative remission rate,"[2]; Example 380, Gemcitabine and carboplatin intravenous injection 120 (G) 100 (C) mg/kg single, CDK inhibitor intravenous injection 100 mg/kg single, 0.5 h before, cycle 8 days",20%
same,Relative remission rate,"[2]; Example 380, Gemcitabine and carboplatin intravenous injection 120 (G) 100 (C) mg/kg single, CDK inhibitor oral 100 mg/kg single, 0.5 h before, cycle 8 days",60%
same,Relative remission rate,"[2]; Example 381, Gemcitabine and carboplatin intravenous injection 120 (G) 100 (C) mg/kg single, CDK inhibitor intravenous injection 100 mg/kg single, 24 h before, cycle 8 days",10%
same,Relative remission rate,"[2]; Example 381, Gemcitabine and carboplatin intravenous injection 120 (G) 100 (C) mg/kg single, CDK inhibitor oral 100 mg/kg single, 24 h before, cycle 8 days",40%
same,relief of diarrhea by oral administration and injection administration,"[2]; diarrhea caused by etoposide, etoposide in combination with cisplatin, carboplatin, gemcitabine, gemcitabine in combination with carboplatin, and topotecan, oral administration has the most significant effect",effectively relieve diarrhea
same,Relative remission rate (%),"[3]; Example 49, Oxaliplatin intraperitoneal injection 20 mg/kg single, CDK inhibitor oral 100 mg/kg single 0.5 h before, cycle 8 days",60%
same,Relative remission rate (%),"[3]; Example 50, Oxaliplatin intraperitoneal injection 20 mg/kg single, CDK inhibitor oral 100 mg/kg single 1 h before, cycle 8 days",50%
same,Relative remission rate (%),"[3]; Example 51, Oxaliplatin intraperitoneal injection 20 mg/kg single, CDK inhibitor oral 100 mg/kg single 2 h before, cycle 8 days",40%
same,Relative remission rate (%),"[3]; Example 52, Oxaliplatin intraperitoneal injection 20 mg/kg single, CDK inhibitor oral 100 mg/kg single 3 h before, cycle 8 days",60%
same,Relative remission rate (%),"[3]; Example 53, Oxaliplatin intraperitoneal injection 20 mg/kg single, CDK inhibitor oral 100 mg/kg single 4 h before, cycle 8 days",50%
same,Relative remission rate (%),"[3]; Example 54, Oxaliplatin intraperitoneal injection 20 mg/kg single, CDK inhibitor oral 100 mg/kg single 5 h before, cycle 8 days",30%
same,Relative remission rate (%),"[3]; Example 55, Oxaliplatin intraperitoneal injection 20 mg/kg single, CDK inhibitor oral 100 mg/kg single 6 h before, cycle 8 days",80%
same,Relative remission rate (%),"[3]; Example 56, Oxaliplatin intraperitoneal injection 20 mg/kg single, CDK inhibitor oral 100 mg/kg single 7 h before, cycle 8 days",60%
same,Relative remission rate (%),"[3]; Example 57, Oxaliplatin intraperitoneal injection 20 mg/kg single, CDK inhibitor oral 100 mg/kg single 8 h before, cycle 8 days",60%
same,Relative remission rate (%),"[3]; Example 58, Oxaliplatin intraperitoneal injection 20 mg/kg single, CDK inhibitor oral 100 mg/kg single 9 h before, cycle 8 days",80%
same,Relative remission rate (%),"[3]; Example 59, Oxaliplatin intraperitoneal injection 20 mg/kg single, CDK inhibitor oral 100 mg/kg single 10 h before, cycle 8 days",70%
same,Relative remission rate (%),"[3]; Example 60, Oxaliplatin intraperitoneal injection 20 mg/kg single, CDK inhibitor oral 100 mg/kg single 11 h before, cycle 8 days",70%
same,Relative remission rate (%),"[3]; Example 61, Oxaliplatin intraperitoneal injection 20 mg/kg single, CDK inhibitor oral 100 mg/kg single 12 h before, cycle 8 days",50%
same,Relative remission rate (%),"[3]; Example 62, Oxaliplatin intraperitoneal injection 20 mg/kg single, CDK inhibitor oral 100 mg/kg single 14 h before, cycle 8 days",60%
same,Relative remission rate (%),"[3]; Example 63, Oxaliplatin intraperitoneal injection 20 mg/kg single, CDK inhibitor oral 100 mg/kg single 16 h before, cycle 8 days",80%
same,Relative remission rate (%),"[3]; Example 64, Oxaliplatin intraperitoneal injection 20 mg/kg single, CDK inhibitor oral 100 mg/kg single 18 h before, cycle 8 days",80%
same,Relative remission rate (%),"[3]; Example 65, Oxaliplatin intraperitoneal injection 20 mg/kg single, CDK inhibitor oral 100 mg/kg single 20 h before, cycle 8 days",70%
same,Relative remission rate (%),"[3]; Example 66, Oxaliplatin intraperitoneal injection 20 mg/kg single, CDK inhibitor oral 100 mg/kg single 22 h before, cycle 8 days",50%
same,Relative remission rate (%),"[3]; Example 67, Oxaliplatin intraperitoneal injection 20 mg/kg single, CDK inhibitor oral 100 mg/kg single 24 h before, cycle 8 days",50%
same,Relative remission rate (%),"[3]; Example 68, Oxaliplatin intraperitoneal injection 20 mg/kg single, CDK inhibitor oral 100 mg/kg single 48 h before, cycle 8 days",0%
same,Relative remission rate (%),"[3]; Example 127, Irinotecan (CPT-11) intramuscular injection 240 mg/kg single, CDK inhibitor oral 50 mg/kg single 1 h before, cycle 7 days",70%
same,Relative remission rate (%),"[3]; Example 170, Gemcitabine (GEM) intraperitoneal injection 120 mg/kg single, CDK inhibitor oral 60 mg/kg single 0.5 h before, cycle 8 days",50%
same,Relative remission rate (%),"[3]; Example 171, Gemcitabine (GEM) intraperitoneal injection 120 mg/kg single, CDK inhibitor oral 60 mg/kg single 1 h before, cycle 8 days",50%
same,Relative remission rate (%),"[3]; Example 172, Gemcitabine (GEM) intraperitoneal injection 120 mg/kg single, CDK inhibitor oral 60 mg/kg single 2 h before, cycle 8 days",40%
same,Relative remission rate (%),"[3]; Example 173, Gemcitabine (GEM) intraperitoneal injection 120 mg/kg single, CDK inhibitor oral 60 mg/kg single 4 h before, cycle 8 days",60%
same,Relative remission rate (%),"[3]; Example 174, Gemcitabine (GEM) intraperitoneal injection 120 mg/kg single, CDK inhibitor oral 60 mg/kg single 6 h before, cycle 8 days",50%
same,Relative remission rate (%),"[3]; Example 175, Gemcitabine (GEM) intraperitoneal injection 120 mg/kg single, CDK inhibitor oral 60 mg/kg single 8 h before, cycle 8 days",50%
same,Relative remission rate (%),"[3]; Example 176, Gemcitabine (GEM) intraperitoneal injection 120 mg/kg single, CDK inhibitor oral 60 mg/kg single 10 h before, cycle 8 days",50%
same,Relative remission rate (%),"[3]; Example 177, Gemcitabine (GEM) intraperitoneal injection 120 mg/kg single, CDK inhibitor oral 60 mg/kg single 12 h before, cycle 8 days",40%
same,Relative remission rate (%),"[3]; Example 178, Gemcitabine (GEM) intraperitoneal injection 120 mg/kg single, CDK inhibitor oral 60 mg/kg single 14 h before, cycle 8 days",60%
same,Relative remission rate (%),"[3]; Example 193, Gemcitabine (GEM) oral administration 300 mg/kg single, CDK inhibitor oral 200 mg/kg single, 2 h before, 8 days",60%
same,Relative remission rate (%),"[3]; Example 227, Topotecan intravenous injection 20 mg/kg single, CDK inhibitor oral 100 mg/kg single, 0.5 h before, 14 days",70%
